Measured values taken from the supplement of paper PMC10307832.

Experiments:
Assay in all cases: relative viability (nuclei count vs DMSO), 5 days (fraction); higher = more cells survive
Tanzisertib + Pictilisib = compound: O[C@H]1CC[C@H](Nc2ncc3nc(Nc4c(F)cc(F)cc4F)n([C@H]4CCOC4)c3n2)CC1 [Tanzisertib] + CS(=O)(=O)N1CCN(Cc2cc3nc(-c4cccc5[nH]ncc45)nc(N4CCOCC4)c3s2)CC1 [Pictilisib] (partner 1 µM)
How it was run: (§1)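 Relative viability divides the nuclei count in treated wells by that in vehicle wells. Lung cancer cell lines were seeded in 1536-well plates, dosed by pin tool the next day, and fixed and stained after 5 days in one step with final 0.05% Triton X-100, 1% formaldehyde and 1 ug/ml Hoechst. Dosing was a single drug or a fixed anchor-drug dose plus five library-drug doses (not always all listed) in √10 steps, and values are medians of duplicate plates imaged at 4×.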

[1] = compound: C[C@@H](N)c1ccc(C(=O)Nc2ccnc3[nH]ccc23)cc1 + O=C(CCCCCCC(=O)Nc1ccccc1)NO [Vorinostat] (partner 1 µM)
How it was run: as §1

[2] = compound: C1CNCCC1C2=CC(=NN2)C3=CC=NC=C3 + CCNC(=O)c1noc(-c2cc(C(C)C)c(O)cc2O)c1-c1ccc(CN2CCOCC2)cc1 [Luminespib] (partner 0.01 µM)
How it was run: as §1

Tanzisertib + Vorinostat = compound: O[C@H]1CC[C@H](Nc2ncc3nc(Nc4c(F)cc(F)cc4F)n([C@H]4CCOC4)c3n2)CC1 [Tanzisertib] + O=C(CCCCCCC(=O)Nc1ccccc1)NO [Vorinostat] (partner 1 µM)
How it was run: as §1

Cell Line | relative viability (Tanzisertib + Pictilisib; first compound 0.08 µM) | relative viability (Tanzisertib + Pictilisib; first compound 0.253 µM) | relative viability (Tanzisertib + Pictilisib; first compound 0.8 µM) | relative viability (Tanzisertib + Pictilisib; first compound 2.53 µM) | relative viability (Tanzisertib + Pictilisib; first compound 8 µM) | relative viability ([1]; first compound 0.1265 µM) | relative viability ([1]; first compound 0.4 µM) | relative viability ([1]; first compound 1.265 µM) | relative viability ([1]; first compound 4 µM) | relative viability ([2]; first compound 0.08 µM) | relative viability ([2]; first compound 0.8 µM) | relative viability ([2]; first compound 2.53 µM) | relative viability ([2]; first compound 8 µM) | relative viability (Tanzisertib + Vorinostat; first compound 0.08 µM) | relative viability (Tanzisertib + Vorinostat; first compound 0.253 µM) | relative viability (Tanzisertib + Vorinostat; first compound 0.8 µM) | relative viability (Tanzisertib + Vorinostat; first compound 2.53 µM) | relative viability (Tanzisertib + Vorinostat; first compound 8 µM) | relative viability ([1]; first compound 0.04 µM)
HCC-827 | 0.876 | 0.937 | 1.14 | 0.885 | 0.536 | 0.813 | 1.04 | 0.972 | 0.701 | 0.571 | 0.522 | 0.749 | 0.57 | 0.747 | 0.871 | 0.725 | 0.853 | 0.357 | 
HOP-62 | 0.851 | 0.874 | 0.856 | 0.871 | 0.341 | 0.541 | 0.602 | 0.179 | 0.555 | 0.999 | 1.06 | 0.837 | 0.847 | 0.632 | 0.599 | 0.679 | 0.768 | 0.605 | 0.715
IA-LM | 0.375 | 0.335 | 0.339 | 0.255 | 0.362 | 0.835 | 1.33 | 1.37 | 1.23 |  |  |  |  | 1.2 | 0.899 | 0.912 | 0.939 | 0.822 | 1.23
LC-2-ad | 0.506 | 0.426 | 0.458 | 0.0954 | 0.359 | 0.736 | 0.713 | 0.476 | 0.369 |  | 1.13 | 1.13 | 0.987 | 0.731 | 0.69 | 0.702 | 0.715 | 0.493 | 0.497
LCLC-97TM1 |  | 0.16 | 0.176 | 0.159 | 0.164 | 0.374 | 0.69 | 0.0878 | 0.779 | 0.734 | 0.916 | 0.962 | 0.713 | 0.862 | 0.749 | 0.638 | 0.86 | 0.169 | 0.835
LCLC-103H | 0.698 | 0.642 | 0.648 | 0.616 | 0.608 | 0.634 | 0.787 | 0.466 | 0.608 | 1.06 | 0.909 | 0.982 | 0.961 | 0.896 | 0.773 | 0.801 | 0.783 | 0.653 | 0.714
LK-2 | 0.515 | 0.578 | 0.477 | 0.463 | 0.435 | 0.275 | 0.222 | 0.17 | 0.302 | 0.176 | 0.19 | 0.214 | 0.226 | 0.365 | 0.356 | 0.282 | 0.25 | 0.278 | 0.198
LOU-NH91 | 0.516 | 0.544 | 0.573 | 0.51 | 0.443 | 0.791 | 0.885 | 0.625 | 0.725 | 0.368 | 0.339 | 0.334 | 0.399 | 0.948 | 0.924 | 1 | 0.974 | 0.418 | 0.754
LU99A | 0.322 | 0.303 | 0.319 | 0.358 | 0.321 | 0.529 | 0.503 | 0.418 | 0.366 | 0.3 | 0.235 | 0.248 | 0.252 | 0.565 | 0.447 | 0.51 | 0.559 | 0.519 | 
LXF-289 | 0.887 | 0.745 | 0.459 | 0.735 | 0.804 | 0.794 | 0.816 | 0.876 | 0.836 | 0.804 | 0.589 | 0.69 | 0.705 | 0.835 | 0.766 | 0.88 | 0.818 | 0.767 | 0.742
NCI-H23 | 0.488 | 0.483 | 0.459 | 0.499 | 0.365 | 0.577 | 0.846 |  | 0.658 |  | 0.212 | 0.213 | 0.211 | 0.542 | 0.596 | 0.498 | 0.49 | 0.474 | 0.638
NCI-H322M | 0.506 | 0.648 | 0.591 | 0.494 | 0.459 | 1.04 | 1.11 | 1.05 | 1.39 | 0.677 | 0.944 | 0.904 | 1.04 | 0.863 | 0.961 | 0.875 | 0.912 | 0.75 | 1.21
NCI-H358 | 0.393 | 0.389 | 0.331 | 0.293 | 0.332 | 0.781 | 0.784 | 0.642 | 0.614 | 0.478 | 0.279 | 0.369 | 0.388 | 0.764 | 0.791 | 0.75 | 0.65 | 0.56 | 0.692
NCI-H522 |  |  |  |  |  | 0.907 | 0.892 | 0.913 | 0.753 | 1.06 | 1.4 | 0.948 | 1.21 | 0.913 | 0.902 | 0.773 | 0.762 | 0.836 | 0.921
NCI-H1299 | 0.762 | 0.713 | 0.699 | 0.893 | 0.729 |  |  |  |  |  |  |  |  |  |  |  |  |  | 
NCI-H1563 | 0.661 | 0.638 | 0.572 | 0.601 | 0.607 |  |  |  |  | 0.536 | 0.497 | 0.518 | 0.494 |  |  |  |  |  | 
NCI-H1623 |  |  |  |  |  |  |  |  |  | 0.401 | 0.5 | 0.564 | 0.551 |  |  |  |  |  | 
NCI-H1648 |  |  |  |  |  | 0.81 | 0.754 | 0.952 | 0.899 |  |  |  |  | 0.553 | 0.36 | 0.398 | 0.571 | 0.391 | 0.623
NCI-H1703 | 0.272 | 0.245 | 0.258 | 0.224 | 0.218 |  |  |  |  |  |  |  |  |  |  |  |  |  | 
NCI-H1792 | 0.307 | 0.261 | 0.29 | 0.231 | 0.243 |  |  |  |  | 0.43 | 0.414 | 0.636 | 0.483 |  |  |  |  |  | 
NCI-H2342 |  |  |  |  |  | 0.744 | 0.704 | 0.869 | 0.731 | 0.716 | 0.781 | 0.888 | 0.857 | 0.801 | 0.847 | 0.816 | 0.765 | 0.754 | 0.772
SW 900 |  |  |  |  |  | 0.54 | 0.738 | 0.884 | 0.877 | 0.187 | 0.172 | 0.165 | 0.168 |  | 0.604 | 0.641 | 0.512 | 0.382 | 0.716
